Laboratory results as given in the supplement of paper PMC10307832.

Columns and labels:
Test in all cases: relative viability (nuclei count vs DMSO), 5 days (fraction); higher = more cells survive
Metformin + Palbociclib = compound: CN(C)C(=N)NC(=N)N [Metformin] + CC(=O)c1c(C)c2cnc(Nc3ccc(N4CCNCC4)cn3)nc2n(C2CCCC2)c1=O [Palbociclib] (partner 0.5 µM)
How it was run: (§1)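 After 5 days of treatment, lung cancer cells in 1536-well plates were fixed and stained in a single step (final 0.05% Triton X-100, 1% formaldehyde, 1 ug/ml Hoechst) and their nuclei counted on 4× images. Treatment had been applied by pin tool the day after seeding as one drug alone or as a fixed anchor-drug dose with five library-drug doses (not always all listed) in √10 steps. Relative viability is the nuclei count of treated wells divided by that of vehicle wells, and values are medians of duplicate plates.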

Apatinib + Luminespib = compound: N#CC1(c2ccc(NC(=O)c3cccnc3NCc3ccncc3)cc2)CCCC1 [Apatinib] + CCNC(=O)c1noc(-c2cc(C(C)C)c(O)cc2O)c1-c1ccc(CN2CCOCC2)cc1 [Luminespib] (partner 0.01 µM)
How it was run: as §1

Apatinib + Alpelisib = compound: N#CC1(c2ccc(NC(=O)c3cccnc3NCc3ccncc3)cc2)CCCC1 [Apatinib] + Cc1nc(NC(=O)N2CCC[C@H]2C(N)=O)sc1-c1ccnc(C(C)(C)C(F)(F)F)c1 [Alpelisib] (partner 2 µM)
How it was run: as §1

Apatinib + Phenformin = compound: N#CC1(c2ccc(NC(=O)c3cccnc3NCc3ccncc3)cc2)CCCC1 [Apatinib] + N=C(N)NC(=N)NCCc1ccccc1 [Phenformin] (partner 250 µM)
How it was run: as §1

Cell Line: NCI-H460
- relative viability (Metformin + Palbociclib; first compound 31.62 µM): 0.191
- relative viability (Metformin + Palbociclib; first compound 100 µM): 0.249
- relative viability (Metformin + Palbociclib; first compound 316.23 µM): 0.105
- relative viability (Metformin + Palbociclib; first compound 1000 µM): 0.148
- relative viability (Apatinib + Luminespib; first compound 0.08 µM): 0.0389
- relative viability (Apatinib + Luminespib; first compound 0.253 µM): 0.0355
- relative viability (Apatinib + Luminespib; first compound 0.8 µM): 0.0311
- relative viability (Apatinib + Luminespib; first compound 2.53 µM): 0.0328
- relative viability (Apatinib + Luminespib; first compound 8 µM): 0.0337
- relative viability (Apatinib + Alpelisib; first compound 0.08 µM): 0.557
- relative viability (Apatinib + Alpelisib; first compound 0.253 µM): 0.478
- relative viability (Apatinib + Alpelisib; first compound 0.8 µM): 0.475
- relative viability (Apatinib + Alpelisib; first compound 2.53 µM): 0.498
- relative viability (Apatinib + Alpelisib; first compound 8 µM): 0.479
- relative viability (Apatinib + Phenformin; first compound 0.08 µM): 0.494
- relative viability (Apatinib + Phenformin; first compound 0.253 µM): 0.479
- relative viability (Apatinib + Phenformin; first compound 0.8 µM): 0.489
- relative viability (Apatinib + Phenformin; first compound 2.53 µM): 0.39
- relative viability (Apatinib + Phenformin; first compound 8 µM): 0.385
